Like-named read-outs stand apart in the source and are kept apart here.
Tests used:
DU-145 (prostate) [1] = tested on: DU-145 (prostate)
Description: (§1) Cancer cell lines were obtained from ATCC (DU-145 (prostate), SK-OV-3 (ovarian), and NCI-H460 (lung)) and maintained according to recommended conditions. Media was enriched with the recommended concentration of fetal bovine serum, as well as gentamicin and amphotericin B. The National Cancer Institute's standard SRB assay assessed cancer cell line growth inhibition, as previously described as the GI50, or the drug concentrations calculated to cause a 50% reduction in net protein increase relative to untreated cells (Vichai and Kirtikara, Nat. Protocols 1:1112-1116 (2006); Monks, et al., J. Natl. Cancer Inst. 83″757-766 (1991); Sites, et al., J. Nat. Prod. 71:313-320 (2008)). Results reported are averages of at least three separate experiments, each of which was carried out in triplicate.

SK-OV-3 (ovarian) [2] = tested on: SK-OV-3 (ovarian)
Description: as §1

NCI-H460 (lung) [3] = tested on: NCI-H460 (lung)
Description: as §1

NCI-H460 (lung) [4] = experiment: Sulforhodamine B (SRB) growth inhibition assay; conditions: for GI50: Homo sapiens, NCI-H460, read-out: Cytotoxicity (GI50) NCI-H460
Description: as §1

SK-OV-3 (ovarian) [5] = experiment: Sulforhodamine B (SRB) growth inhibition assay; conditions: Homo sapiens
Description: as §1

DU-145 (prostate) [6] = experiment: Sulforhodamine B (SRB) growth inhibition assay; conditions: for GI50: Homo sapiens, DU-145, read-out: Cytotoxicity (GI50) DU-145
Description: as §1

Bovine brain tubulin = experiment: Inhibition of tubulin polymerization (turbidimetric tubulin assembly); format: biochemical; conditions: for IC50: 10 μM tubulin, 20 min incubation, 30° C.; for Inhibition of tubulin assembly (in words): comparable to CA1, CA4
Procedure: Bovine brain tubulin was purified using methods previously described by Hamel (Cell Biochem. Biophys. 38:1-21 (2003)). The effect of compounds on tubulin assembly in vitro was determined by using a series of concentrations that were pre-incubated with 10 μM tubulin (1.0 mg/mL) in glutamate buffer at 30° C., followed by cooling to 0° C. After GTP was added, the samples were mixed and transferred to cuvettes at 0° C. in a recording spectrophotometer and warmed to 30° C. to initiate polymerization. Tubulin assembly was observed turbidimetrically at 350 nm. Tubulin disassembly was confirmed by cooling to 0° C. The calculated compound concentration that inhibited tubulin assembly by 50% after a 20 min incubation was defined as the IC50 value.

human cancer cell lines [7] = conditions: previous studies, U.S. Pat. No. 7,429,681; cited from earlier work
human cancer cell lines [8] = experiment: Cytotoxicity against human cancer cell lines (SRB assay, whole panel); format: cell-based; conditions: each cell line of Table 2
Description: as §1

[9] = SK-OV-3, read-out: Cytotoxicity (GI50) SK-OV-3

Structure (SMILES) | GI50 (DU-145 (prostate) [1]) [nM] | GI50 (SK-OV-3 (ovarian) [2]) [nM] | GI50 (NCI-H460 (lung) [3]) [nM] | also measured
COc1ccc2c(c1F)CCCC=C2c1cc(OC)c(OC)c(OC)c1 [Compound 41, 1-Fluoro-2-methoxy-5-(3′,4′,5′-trimethoxyphenyl)-6,7,8,9-tetrahydro-5H-cyclobenzoheptan-5-ene] | 2.87 | 0.00724 | 4 | 
COc1ccc2c(c1Cl)CCCC=C2c1cc(OC)c(OC)c(OC)c1 [Compound 46, 1-Chloro-2-methoxy-5-(3′,4′,5′-trimethoxyphenyl)-6,7,8,9-tetrahydro-5H-cyclobenzoheptan-5-ene] | 108 | 39.9 | 83.2 | 
COc1cc(C2=CCCCc3c2ccc(OC)c3O)cc(OC)c1O [Compound 71, 9-(4′-Hydroxy-3′,5′-dimethoxyphenyl)-3-methoxy-6,7-dihydro-5H-benzo[7]annulen-4-ol] |  |  |  | GI50 (NCI-H460 (lung) [4]): 439 nM; GI50 (SK-OV-3 (ovarian) [5]; [9]): 378 nM; GI50 (DU-145 (prostate) [6]): 579 nM
COc1ccc2c(c1)CCCC=C2c1cc(OC)c(OC)c(OC)c1 [Compound 50, 2-Methoxy-5-(3′,4′,5′-trimethoxyphenyl)-6,7,8,9-tetrahydro-5H-cyclobenzoheptan-5-ene] | 26.1 | 36.6 | 51 | 
COc1cc2c(c(OC)c1O)CCCC=C2c1cc(OC)c(OC)c(OC)c1 [Compound 16, 1,3-Dimethoxy-5-(3′,4′,5′-trimethoxyphenyl)-6,7,8,9-tetrahydro-5H-cyclobenzohepta-6-ene-2-ol] | 15700 | 7130 | 18000 | 
COc1ccc2c(c1O)CCCC=C2c1cc(OC)c(OC)c(OC)c1 [Compound 23, 2-Methoxy-5-(3′,4′,5′-trimethoxyphenyl)-6,7,8,9-tetrahydro-5H-cyclobenzohepta-6-ene-1-ol] |  |  |  | GI50 (NCI-H460 (lung) [4]): 0.00192 nM; GI50 (SK-OV-3 (ovarian) [5]; [9]): 0.0242 nM; IC50 (Bovine brain tubulin): 1700 nM; Inhibition of tubulin assembly (in words) (Bovine brain tubulin): potent inhibitors of tubulin assembly; Cytotoxicity against human cancer cell lines (in words) (human cancer cell lines [7]): picomolar cytotoxicity; GI50 (DU-145 (prostate) [6]): 0.00242 nM
COc1cc(C2(O)CCCCc3c2ccc(O)c3O)cc(OC)c1OC (stereo not shown) [Compound 63, 1,2-Dihydroxy-5-(3′,4′,5′-trimethoxyphenyl)-6,7,8,9-tetrahydro-5H-cyclobenzoheptan-5-ol] | 783 | 341 | 410 | 
COc1cc(C2=CCCCc3c2ccc(OC)c3OC)cc(OC)c1OC [Compound 58, 1,2-Dimethoxy-5-(3′,4′,5′-trimethoxyphenyl)-6,7,8,9-tetrahydro-5H-cyclobenzohepta-6-ene] | 516 | 641 | 479 | 
COc1ccc2c(c1N)CCCC=C2c1cc(OC)c(OC)c(OC)c1 [Compound 6, 2-Methoxy-5-(3′,4′,5′-trimethoxyphenyl)-6,7,8,9-tetrahydro-5H-cyclobenzohepta-6-ene-1-amine] |  |  |  | GI50 (NCI-H460 (lung) [4]): 4.69 nM; Cytotoxicity (in words) (NCI-H460 (lung) [4]; non-small cell lung cell line): strongly cytotoxic; GI50 (SK-OV-3 (ovarian) [5]; [9]): 0.0329 nM; GI50 (SK-OV-3 (ovarian) [5]; SK-OV-3, read-out: GI50 against ovarian cancer): 0.0329 nM; Cytotoxicity compared with comparison compounds (in words) (human cancer cell lines [8]): more active against each cell line than the natural products CA4 and CA1; IC50 (Bovine brain tubulin): 1200 nM; Inhibition of tubulin assembly (in words) (Bovine brain tubulin): potent inhibitors of tubulin assembly; GI50 (DU-145 (prostate) [6]): 1.11 nM; Cytotoxicity (in words) (DU-145 (prostate) [6]; prostate cell line): strongly cytotoxic
COc1ccc(/C=C\c2cc(OC)c(OC)c(OC)c2)c(O)c1O [CA1, Combretastatin A-1, reference compound] |  |  |  | IC50 (Bovine brain tubulin): 1900 nM
COc1cc2c(c(O)c1O)CCCC=C2c1cc(OC)c(OC)c(OC)c1 [Compound 13, 3-Methoxy-5-(3′,4′,5′-trimethoxyphenyl)-6,7,8,9-tetrahydro-5H-cyclobenzohepta-6-ene-1,2-diol] | 20500 | 22700 | 20900 | 
COc1cc(C2=CCCCc3ccccc32)cc(OC)c1OC [Compound 65, 5-(3′,4′,5′-trimethoxyphenyl)-6,7,8,9-tetrahydro-5H-cyclobenzohepta-5-ene] | 22000 | 19100 | 32500 | 
COc1cc(C2=CCCCc3c2cc(OC)c(OC)c3O)cc(OC)c1OC [Compound 36, 1-Hydroxy-2,3-dimethoxy-5-(3′,4′,5′-trimethoxyphenyl)-6,7,8,9-tetrahydro-5H-cyclobenzoheptan-5-ene] | 16300 | 18100 | 25900 | 
COc1cc(C2=CCCCc3c2ccc(OC)c3OP(=O)(O)O)cc(OC)c1OC [Compound 24, Disodium 2-Methoxy-5-(3′,4′,5′-trimethoxyphenyl)-6,7,8,9-tetrahydro-5H-cyclobenzohepta-6-ene-1-phosphate] | 9.66 | 5.94 | 26.6 | 
COc1cc(C2=CCCCc3c2ccc(OC)c3[N+](=O)[O-])cc(OC)c1OC [Compound 5, 1-Nitro-2-Methoxy-5-(3′,4′,5′-trimethoxyphenyl)-6,7,8,9-tetrahydro-5H-cyclobenzohepta-6-ene] |  |  |  | GI50 (NCI-H460 (lung) [4]): 666 nM; GI50 (SK-OV-3 (ovarian) [5]; [9]): 152 nM; Cytotoxicity compared with comparison compounds (in words) (human cancer cell lines [8]): significantly less cytotoxic than any of the comparison compounds; IC50 (Bovine brain tubulin): 2500 nM; Inhibition of tubulin assembly (in words) (Bovine brain tubulin): potent inhibitors of tubulin assembly; GI50 (DU-145 (prostate) [6]): 211 nM
